Measurements taken from US20260274833A1 (NiKang Therapeutics, Inc., priority 2022, published 2026).

Target: T1, CDK2 (Homo sapiens, UniProt P24941)
T1 construct: endogenous in cells; host or cells: OVCAR3 cells
Assay: Phospho-RB measurement in OVCAR3 cells (HTRF phospho-RB cellular kit)
Type: cell-based
Details: inhibition of RB phosphorylation at S807/811 (HTRF, TR-FRET ratio 665/620), 24 h compound treatment, 0.3 to 10,000 nM
Summary of the method: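 IC50 came from a four-parameter logistic fit of the DMSO-normalized TR-FRET ratio (665/620 nm). That ratio reflects RB phosphorylation at S807/811, read with an HTRF antibody pair 4 h after adding lysate at room temperature.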

Row | IC50 [nM] | Compound
1 | 1300 | CC(C)(C)c1nc(-c2cccc(NS(=O)(=O)N3CCc4ccc(-c5ccccc5)cc43)c2F)c(-c2ccnc(NC3CCN(S(C)(=O)=O)CC3)n2)s1 [Example 218, N-(3-(2-(tert-butyl)-5-(2-((1-(methylsulfonyl)-piperidin-4-yl)amino)-pyrimidin-4-yl)thiazol-4-yl)-2-fluoro-phenyl)-6-phenylindoline-1-sulfonamide]
2 | 583 | CC(C)(C)c1nc(-c2cccc(NS(=O)(=O)N3Cc4cccc(Oc5ccccc5C#N)c4C3)c2F)c(-c2ccnc(NC3CC4(C3)CS(=O)(=O)C4)n2)s1 [Example 219, N-(3-(2-(tert-butyl)-5-(2-((2,2-dioxido-2-thiaspiro[3.3]heptan-6-yl)amino)-pyrimidin-4-yl)thiazol-4-yl)-2-fluorophenyl)-4-(2-cyanophenoxy)-isoindoline-2-sulfonamide]
3 | 802 | Cn1c(-c2ccc3c(c2)N(S(=O)(=O)Nc2cccc(-c4nc(C(C)(C)C)sc4-c4ccnc(NC5CC6(C5)CS(=O)(=O)C6)n4)c2F)CC3)cccc1=O [Example 220, N-(3-(2-(tert-butyl)-5-(2-((2,2-dioxido-2-thiaspiro[3.3]heptan-6-yl)amino)-pyrimidin-4-yl)thiazol-4-yl)-2-fluoro-phenyl)-6-(1-methyl-6-oxo-1,6-dihydropyridin-2-yl)indoline-1-sulfonamide]
4 | 35.5 | COc1cccc2c1CN(S(=O)(=O)Nc1cccc(-c3nc(C(C)(C)C)sc3-c3ccnc(N[C@H]4[C@@H]5CS(=O)(=O)C[C@@H]54)n3)c1F)C2 [Example 221, N-(3-(2-(tert-butyl)-5-(2-(((1R,5S,6r)-3,3-dioxido-3-thiabicyclo [3.1.0]hexan-6-yl)amino)pyrimidin-4-yl)thiazol-4-yl)-2-fluorophenyl)-4-methoxyisoindoline-2-sulfonamide]
5 | 152 | CC(C)(C)c1nc(-c2cccc(NS(=O)(=O)N3Cc4ccncc4C3)c2F)c(-c2ccnc(N[C@H]3[C@@H]4CS(=O)(=O)C[C@@H]43)n2)s1 [Example 222, N-(3-(2-(tert-butyl)-5-(2-(((1R,5S,6r)-3,3-dioxido-3-thiabicyclo[3.1.0]hexan-6-yl)amino)pyrimidin-4-yl)thiazol-4-yl)-2-fluorophenyl)-1,3-dihydro-2H-pyrrolo[3,4-c]-pyridine-2-sulfonamide]
6 | 89 | CC(C)(C)c1nc(-c2cccc(NS(=O)(=O)N3CCc4ccc(C#N)cc43)c2F)c(-c2ccnc(N[C@H]3[C@@H]4CS(=O)(=O)C[C@@H]43)n2)s1 [Example 223, N-(3-(2-(tert-butyl)-5-(2-(((1R,5S,6r)-3,3-dioxido-3-thiabicyclo [3.1.0]hexan-6-yl)amino)pyrimidin-4-yl)thiazol-4-yl)-2-fluorophenyl)-6-cyanoindoline-1-sulfonamide]
7 | 300 | CC(C)(C)c1nc(-c2cccc(NS(=O)(=O)N3Cc4cccc(-c5ccccc5)c4C3)c2F)c(-c2ccnc(NC3CCN(S(C)(=O)=O)CC3)n2)s1 [Example 224, N-(3-(2-(tert-butyl)-5-(2-((1-(methylsulfonyl)-piperidin-4-yl)amino)-pyrimidin-4-yl)thiazol-4-yl)-2-fluoro-phenyl)-4-phenylisoindoline-2-sulfonamide]
8 | 456 | CC(C)(C)c1nc(-c2cccc(NS(=O)(=O)N3CCc4ccc(C#N)cc43)c2F)c(-c2ccnc(Nc3ccc(N4CCNCC4)cc3)n2)s1 [Example 225, N-(3-(2-(tert-butyl)-5-(2-((4-(piperazin-1-yl)phenyl)amino)pyrimidin-4-yl)-thiazol-4-yl)-2-fluorophenyl)-6-cyano-indoline-1-sulfonamide]
9 | 527 | CC(C)Oc1cccc2c1CN(S(=O)(=O)Nc1cccc(-c3nc(C(C)(C)C)sc3-c3ccnc(NC4CC5(C4)CS(=O)(=O)C5)n3)c1F)C2 [Example 226, N-(3-(2-(tert-butyl)-5-(2-((2,2-dioxido-2-thiaspiro[3.3]heptan-6-yl)amino)-pyrimidin-4-yl)thiazol-4-yl)~2~fluoro-phenyl)-4-isopropoxyiso-indoline-2-sulfonamide]
